pIC50, pKi: −log10 of the molar value.
Tests used:
Aromatase [1] = biological target: T1, Aromatase (Homo sapiens, UniProt P11511); conditions: 0.25 h, read-out: INH
T1 sequence (P11511 whole entry): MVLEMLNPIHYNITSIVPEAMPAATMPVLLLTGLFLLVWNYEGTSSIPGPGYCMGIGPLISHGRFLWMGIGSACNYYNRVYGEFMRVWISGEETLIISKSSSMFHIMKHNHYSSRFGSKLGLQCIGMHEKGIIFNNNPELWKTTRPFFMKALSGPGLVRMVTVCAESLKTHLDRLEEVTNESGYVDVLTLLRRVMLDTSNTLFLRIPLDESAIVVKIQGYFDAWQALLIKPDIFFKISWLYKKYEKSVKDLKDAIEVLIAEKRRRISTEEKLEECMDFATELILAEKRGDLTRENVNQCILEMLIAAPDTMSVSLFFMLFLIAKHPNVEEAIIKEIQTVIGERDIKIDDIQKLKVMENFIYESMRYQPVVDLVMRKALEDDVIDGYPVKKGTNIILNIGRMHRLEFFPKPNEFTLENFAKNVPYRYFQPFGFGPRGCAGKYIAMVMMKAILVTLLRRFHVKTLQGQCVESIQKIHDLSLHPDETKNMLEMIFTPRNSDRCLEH
Description: Inhibition of aromatase in human placental microsomes using [1beta-3H]androstenedione as substrate at 2 uM after 15 mins by liquid scintillation counting

Aromatase [2] = biological target: T1, Aromatase; assay: Inhibition of aromatase in human placental microsomes using [1beta-3H]androstenedione as substrate after 15 mins by liquid scintillation counting; set-up: species or system Placenta
Aromatase [3] = biological target: T1, Aromatase; assay: Inhibition of aromatase in human microsomes using [1beta-3H]androstenedione as substrate after 5 mins by Dixon plot analysis; set-up: species or system Microsome; conditions: read-out: Ki(app)
Aromatase [4] = biological target: T1, Aromatase; assay: Competitive inhibition of aromatase in human microsomes using [1beta-3H]androstenedione as substrate after 5 mins by Lineweaver-Burk plot analysis; set-up: species or system Microsome

| Compound | inhibition at 2 µM (Aromatase [1]) [%] | pIC50 (Aromatase [2]) | pKi (Aromatase [3]) | inhibition (INH) (Aromatase [4]) |
| --- | --- | --- | --- | --- |
| C[C@]12CCC=C[C@@H]1CC[C@@H]1[C@@H]2CC[C@]2(C)C(=S)CC[C@@H]12 | 41.5 |  |  |  |
| C[C@]12CC[C@@H](O)C=C1CC[C@@H]1[C@@H]2CC[C@]2(C)C(=O)CC[C@@H]12 | 60.8 |  |  |  |
| C[C@]12C[C@H]3O[C@H]3C[C@@H]1CC[C@@H]1[C@@H]2CC[C@]2(C)C(=O)CC[C@@H]12 | 70.7 | 5.94 |  |  |
| C[C@]12CC=CC[C@@H]1CC[C@@H]1[C@@H]2CC[C@]2(C)C(=O)CC[C@@H]12 | 72 | 5.76 | 5.02 | Active |
| CC(=O)O[C@H]1CC[C@H]2[C@@H]3CCC4=C[C@@H](O)CC[C@]4(C)[C@H]3CC[C@]12C | 4.6 |  |  |  |
| C[C@]12CC[C@H]3O[C@H]3[C@@H]1CC[C@@H]1[C@@H]2CC[C@]2(C)C(=O)CC[C@@H]12 |  |  |  | Active |
| C[C@]12CCCC=C1CC[C@@H]1[C@@H]2CC[C@]2(C)C(=O)CC[C@@H]12 | 97.8 |  |  |  |
| C[C@]12CC[C@H](O)C=C1CC[C@@H]1[C@@H]2CC[C@]2(C)C(=O)CC[C@@H]12 | 93.1 |  |  | Active |
| C[C@]12[C@@H](CC[C@@H]3[C@@H]1CC[C@]1(C)C(=O)CC[C@@H]31)CC[C@@H]1O[C@@H]12 | 40 |  |  |  |
| C[C@]12CCC=C[C@@H]1CC[C@@H]1[C@@H]2CC[C@]2(C)C(=O)CC[C@@H]12 |  |  | 7.30 | Active |
| CC(=O)Oc1ccccc1C(=O)OC1=C2CC[C@@H]3[C@H](CC[C@]4(C)C(=O)CC[C@@H]34)[C@@]2(C)CCC1=O | 68.7 |  |  |  |
| C[C@]12C=CCC[C@@H]1CC[C@@H]1[C@@H]2CC[C@]2(C)C(=O)CC[C@@H]12 | 56 |  |  |  |
| C[C@]12CC[C@H]3[C@@H](CC[C@@]45O[C@@H]4CCC[C@]35C)[C@@H]1CCC2=O | 84.6 | 6.01 | 7.07 | Active |
| CC(=O)OC1=CCC[C@@]2(C)[C@H]1CC[C@@H]1[C@@H]2CC[C@]2(C)C(=O)CC[C@@H]12 | 33.9 |  |  |  |

— ChEMBL document CHEMBL2057175, “New structure-activity relationships of A- and D-ring modified steroidal aromatase inhibitors: design, synthesis, and biochemical evaluation” (J Med Chem, 2012)
